Reference: the supplement of paper PMC10307832

Experiments:
Assay in all cases: relative viability (nuclei count vs DMSO), 5 days (fraction); higher = more cells survive
NCI-H2228 = tested on: NCI-H2228
Outline: (§1)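 Lung cancer cell lines, seeded in 1536-well plates, were treated the following day by pin tool with a single drug or with five library-drug doses (not always all listed) in √10 steps on top of a fixed anchor-drug dose. Cells were fixed and nuclei stained in one step after 5 days, and nuclei were counted. Relative viability is the nuclei count for treated wells divided by that for vehicle wells, reported as medians of duplicate plates.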

NCI-H2170 = tested on: NCI-H2170
Outline: as §1

UMC-11 = tested on: UMC-11
Outline: as §1

NCI-H2087 = tested on: NCI-H2087
Outline: as §1

LOU-NH91 = tested on: LOU-NH91
Outline: as §1

NCI-H460 = tested on: NCI-H460
Outline: as §1

NCI-H1944 = tested on: NCI-H1944
Outline: as §1

RERF-LC-KJ = tested on: RERF-LC-KJ
Outline: as §1

NCI-H1651 = tested on: NCI-H1651
Outline: as §1

NCI-H1395 = tested on: NCI-H1395
Outline: as §1

CAL-12T = tested on: CAL-12T
Outline: as §1

PC-3 [JPC-3] = tested on: PC-3 [JPC-3]
Outline: as §1

ABC-1 = tested on: ABC-1
Outline: as §1

NCI-H3122 = tested on: NCI-H3122
Outline: as §1

LU99A = tested on: LU99A
Outline: as §1

LC-2-ad = tested on: LC-2-ad
Outline: as §1

NCI-H1755 = tested on: NCI-H1755
Outline: as §1

ChaGo-K-1 = tested on: ChaGo-K-1
Outline: as §1

NCI-H2405 = tested on: NCI-H2405
Outline: as §1

NCI-H1793 = tested on: NCI-H1793
Outline: as §1

`O=c1cc(-c2cccc3c2Sc2ccccc2S3)oc(N2CCOCC2)c1` + CCNC(=O)c1noc(-c2cc(C(C)C)c(O)cc2O)c1-c1ccc(CN2CCOCC2)cc1 [Luminespib] (partner 0.01 µM) gave a relative viability (NCI-H2228; first compound 0.08 µM) of 0.139, a relative viability (NCI-H2228; first compound 0.253 µM) of 0.106 and a relative viability (NCI-H2228; first compound 0.8 µM) of 0.129. For the same compound, the relative viability (NCI-H2228; first compound 2.53 µM) was 0.146, the relative viability (NCI-H2228; first compound 8 µM) was 0.143 and the relative viability (NCI-H2170; first compound 0.08 µM) was 0.839. It also gave a relative viability (NCI-H2170; first compound 0.253 µM) of 0.931, a relative viability (NCI-H2170; first compound 0.8 µM) of 0.903 and a relative viability (NCI-H2170; first compound 2.53 µM) of 0.63. For the same compound, the relative viability (NCI-H2170; first compound 8 µM) was 0.533, the relative viability (UMC-11; first compound 0.08 µM) was 1.07 and the relative viability (UMC-11; first compound 0.253 µM) was 1.22. For the same compound, the relative viability (UMC-11; first compound 0.8 µM) was 1.19, the relative viability (UMC-11; first compound 2.53 µM) was 1.25 and the relative viability (UMC-11; first compound 8 µM) was 1.34. The relative viability (NCI-H2087; first compound 0.08 µM) was 0.2, the relative viability (NCI-H2087; first compound 0.253 µM) was 0.163 and the relative viability (NCI-H2087; first compound 0.8 µM) was 0.155. For the same compound, the relative viability (NCI-H2087; first compound 2.53 µM) was 0.163, the relative viability (NCI-H2087; first compound 8 µM) was 0.2 and the relative viability (LOU-NH91; first compound 0.08 µM) was 0.327. For the same compound, the relative viability (LOU-NH91; first compound 0.253 µM) was 0.43, the relative viability (LOU-NH91; first compound 0.8 µM) was 0.339 and the relative viability (LOU-NH91; first compound 2.53 µM) was 0.354. For the same compound, the relative viability (LOU-NH91; first compound 8 µM) was 0.357, the relative viability (NCI-H460; first compound 0.08 µM) was 0.0288 and the relative viability (NCI-H460; first compound 0.253 µM) was 0.0357. The relative viability (NCI-H460; first compound 0.8 µM) was 0.0367, the relative viability (NCI-H460; first compound 2.53 µM) was 0.0306 and the relative viability (NCI-H460; first compound 8 µM) was 0.0332. It also gave a relative viability (NCI-H1944; first compound 0.08 µM) of 0.678, a relative viability (NCI-H1944; first compound 0.253 µM) of 0.746 and a relative viability (NCI-H1944; first compound 0.8 µM) of 0.72. The relative viability (NCI-H1944; first compound 2.53 µM) was 0.684, the relative viability (NCI-H1944; first compound 8 µM) was 0.758 and the relative viability (RERF-LC-KJ; first compound 0.08 µM) was 1.06. It also gave a relative viability (RERF-LC-KJ; first compound 0.253 µM) of 1.56, a relative viability (RERF-LC-KJ; first compound 0.8 µM) of 1.24 and a relative viability (RERF-LC-KJ; first compound 2.53 µM) of 1.35. The relative viability (RERF-LC-KJ; first compound 8 µM) was 1.42, the relative viability (NCI-H1651; first compound 0.08 µM) was 0.81 and the relative viability (NCI-H1651; first compound 0.253 µM) was 0.93. It also gave a relative viability (NCI-H1651; first compound 0.8 µM) of 0.889, a relative viability (NCI-H1651; first compound 2.53 µM) of 0.807 and a relative viability (NCI-H1651; first compound 8 µM) of 0.791. The relative viability (NCI-H1395; first compound 0.08 µM) was 0.632, the relative viability (NCI-H1395; first compound 0.253 µM) was 0.712 and the relative viability (NCI-H1395; first compound 0.8 µM) was 0.658. The relative viability (NCI-H1395; first compound 2.53 µM) was 0.63, the relative viability (NCI-H1395; first compound 8 µM) was 0.661 and the relative viability (CAL-12T; first compound 0.08 µM) was 0.277. The relative viability (CAL-12T; first compound 0.253 µM) was 0.708, the relative viability (CAL-12T; first compound 0.8 µM) was 0.506 and the relative viability (CAL-12T; first compound 2.53 µM) was 0.299. The relative viability (CAL-12T; first compound 8 µM) was 0.207, the relative viability (PC-3 [JPC-3]; first compound 0.08 µM) was 0.685 and the relative viability (PC-3 [JPC-3]; first compound 0.253 µM) was 0.765. For the same compound, the relative viability (PC-3 [JPC-3]; first compound 0.8 µM) was 0.862, the relative viability (PC-3 [JPC-3]; first compound 2.53 µM) was 0.687 and the relative viability (PC-3 [JPC-3]; first compound 8 µM) was 0.493. For the same compound, the relative viability (ABC-1; first compound 0.08 µM) was 0.535, the relative viability (ABC-1; first compound 0.253 µM) was 0.275 and the relative viability (ABC-1; first compound 0.8 µM) was 0.91. It also gave a relative viability (ABC-1; first compound 2.53 µM) of 0.529, a relative viability (ABC-1; first compound 8 µM) of 0.532 and a relative viability (NCI-H3122; first compound 0.08 µM) of 0.109. For the same compound, the relative viability (NCI-H3122; first compound 0.253 µM) was 0.102, the relative viability (NCI-H3122; first compound 0.8 µM) was 0.111 and the relative viability (NCI-H3122; first compound 2.53 µM) was 0.0685. The relative viability (NCI-H3122; first compound 8 µM) was 0.106, the relative viability (LU99A; first compound 0.08 µM) was 0.211 and the relative viability (LU99A; first compound 0.253 µM) was 0.219. It also gave a relative viability (LU99A; first compound 0.8 µM) of 0.259, a relative viability (LU99A; first compound 2.53 µM) of 0.221 and a relative viability (LU99A; first compound 8 µM) of 0.306. For the same compound, the relative viability (LC-2-ad; first compound 0.08 µM) was 0.979, the relative viability (LC-2-ad; first compound 0.253 µM) was 1.12 and the relative viability (LC-2-ad; first compound 0.8 µM) was 1.13. It also gave a relative viability (LC-2-ad; first compound 2.53 µM) of 0.955, a relative viability (LC-2-ad; first compound 8 µM) of 0.965 and a relative viability (NCI-H1755; first compound 0.08 µM) of 0.425. The relative viability (NCI-H1755; first compound 0.253 µM) was 0.614, the relative viability (NCI-H1755; first compound 0.8 µM) was 0.378 and the relative viability (NCI-H1755; first compound 2.53 µM) was 0.641. For the same compound, the relative viability (NCI-H1755; first compound 8 µM) was 0.5, the relative viability (ChaGo-K-1; first compound 0.08 µM) was 0.533 and the relative viability (ChaGo-K-1; first compound 0.253 µM) was 0.763. It also gave a relative viability (ChaGo-K-1; first compound 0.8 µM) of 0.658, a relative viability (ChaGo-K-1; first compound 2.53 µM) of 0.67 and a relative viability (ChaGo-K-1; first compound 8 µM) of 0.548. For the same compound, the relative viability (NCI-H2405; first compound 0.08 µM) was 0.522, the relative viability (NCI-H2405; first compound 0.253 µM) was 0.565 and the relative viability (NCI-H2405; first compound 0.8 µM) was 0.464. For the same compound, the relative viability (NCI-H2405; first compound 2.53 µM) was 0.568, the relative viability (NCI-H2405; first compound 8 µM) was 0.465 and the relative viability (NCI-H1793; first compound 0.08 µM) was 0.168. The relative viability (NCI-H1793; first compound 0.253 µM) was 0.299, the relative viability (NCI-H1793; first compound 0.8 µM) was 0.231 and the relative viability (NCI-H1793; first compound 2.53 µM) was 0.17. It also gave a relative viability (NCI-H1793; first compound 8 µM) of 0.153.
